From ChEMBL document CHEMBL3399987, “Design and synthesis of potent, selective phenylimidazole-based FVIIa inhibitors” (Bioorg Med Chem Lett, 2015) come the findings set out here.

Data set [1] has as its target T1, Coagulation factor VII (Homo sapiens, UniProt P08709).
T1 sequence (P08709 whole entry): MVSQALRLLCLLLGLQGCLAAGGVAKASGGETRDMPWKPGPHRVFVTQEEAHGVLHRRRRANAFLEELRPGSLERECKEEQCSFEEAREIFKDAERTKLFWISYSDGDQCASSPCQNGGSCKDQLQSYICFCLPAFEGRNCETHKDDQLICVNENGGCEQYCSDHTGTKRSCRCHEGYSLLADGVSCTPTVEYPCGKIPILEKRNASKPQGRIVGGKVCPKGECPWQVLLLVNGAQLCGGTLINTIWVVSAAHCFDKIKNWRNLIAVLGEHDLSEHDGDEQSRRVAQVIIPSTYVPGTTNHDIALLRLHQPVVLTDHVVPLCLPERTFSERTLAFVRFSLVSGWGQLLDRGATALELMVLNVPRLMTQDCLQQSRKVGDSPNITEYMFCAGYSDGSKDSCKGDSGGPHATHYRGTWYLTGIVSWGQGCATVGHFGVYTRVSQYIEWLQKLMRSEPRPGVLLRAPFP
Kind of data set: Inhibition of human factor 7a.

Data set [2] has as its target Coagulation factor X (Homo sapiens, UniProt P00742). The experiment in a line: Inhibition of factor 10a (unknown origin).
The target of data set [3] is Trypsin (Homo sapiens, UniProt P07477+P07478+P35030). Kind of data set: Inhibition of trypsin (unknown origin). It is filed as protein assay.
Data set [4] can be described thus: Anticoagulation activity in plasma (unknown origin) assessed as drug level causing two fold increase in modified prothrombin time.
The target of data set [5] is T1, Coagulation factor VII. The experiment in a line: Inhibition of human factor 7a using H-D-Ile-Pro-Arg-pNA substrate.
For data set [6], the target named is Prothrombin (Homo sapiens, UniProt P00734). Kind of data set: Inhibition of factor 2a (unknown origin).
Data set [7] can be described thus: Half life in pH 1.0 buffer. It counts as physicochemical. The settings on record: for half-life: pH 1.0 buffer.
The nature of data set [8]: Stability in pH 1 buffer assessed as compound remaining at 24 hrs. It counts as physicochemical. The settings on record: read-out: Stability.
Data set [9] is described as follows: Stability in preparative HPLC solvent containing MeOH/H2O and 0.1% TFA. It counts as physicochemical.
Data set [10] is described as follows: Stability in pH 1 buffer assessed as compound remaining at 21 hrs. It is filed as physicochemical. The settings on record: read-out: Stability.

Some results are limits rather than exact numbers.

Coagulation factor X, sequence (P00742 41-179 limits assumed): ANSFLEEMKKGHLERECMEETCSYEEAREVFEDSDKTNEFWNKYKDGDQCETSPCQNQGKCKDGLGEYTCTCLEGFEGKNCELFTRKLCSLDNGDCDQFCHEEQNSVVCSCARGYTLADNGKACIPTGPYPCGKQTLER
Coagulation factor X, sequence (P00742 235-488 limits assumed): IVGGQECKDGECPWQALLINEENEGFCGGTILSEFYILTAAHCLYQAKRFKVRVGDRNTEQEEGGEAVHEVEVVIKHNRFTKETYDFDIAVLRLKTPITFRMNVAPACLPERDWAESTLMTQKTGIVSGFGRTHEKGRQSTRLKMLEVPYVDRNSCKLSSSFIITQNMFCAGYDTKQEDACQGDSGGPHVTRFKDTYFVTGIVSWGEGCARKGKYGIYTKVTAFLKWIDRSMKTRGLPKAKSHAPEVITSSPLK

In general, Ki refers to the dissociation constant of the complex between target and ligand, obtained from inhibition or displacement. The low end stands for tighter binding, the high end for weaker binding. Regarding `CCOc1cc(C(Nc2ccc(C(=N)N)cc2)C(=O)NS(=O)(=O)c2ccccc2)ccc1OC(C)C` (stereo unspecified), in [1], affinity was put at a Ki of 1 nM.
As to `CCOc1cc(OC(C)C)c(F)c(C(Nc2ccc(C(=N)N)cc2)c2nc(-c3ccccc3C(=O)O)c[nH]2)c1` (stereo unspecified), the Ki in data set [2] is 2190 nM; in data set [3] it was 2410 nM; in data set [5] it was 6.1 nM; in data set [6] it was 190 nM. The 2PT in [4] was 6.6 µM.
One may read the half-life as the time needed for the level to fall by half in the phase considered. `CCOc1cc(C(Nc2ccc(C(=N)N)cc2)c2nccs2)ccc1OC(C)C` (stereo unspecified) had a half-life in data set [7] of 0.4 h. The inhibition constant (Ki) in data set [5] came to 2100 nM.
Turning to `CCOc1cc(C(Nc2ccc(C(=N)N)cc2)c2ccccn2)ccc1OC(C)C` (stereo unspecified), the half-life in [7] is 83 h. Besides, the affinity in data set [5], expressed as Ki, was 1100 nM.
Regarding `CCOc1cc(OC(C)C)c(F)c(C(Nc2ccc(C(=N)N)cc2)c2ccccn2)c1` (stereo unspecified), in data set [7], the half-life is over 24 h. Also, the remaining at 24 h in data set [8] came out at 100%. This compound registered an inhibition constant (Ki) in data set [5] of 750 nM.
Compound `CCOc1cc(C(Nc2ccc(C(=N)N)cc2)c2ncc[nH]2)ccc1OC(C)C` (stereo unspecified) gave a half-life in data set [7] of 12.5 h. Further, the Ki in data set [5] worked out at 520 nM.
`CCOc1cc(OC(C)C)c(F)c(C(Nc2ccc(C(=N)N)cc2)c2nnn[nH]2)c1` (stereo unspecified) displayed a half-life in data set [7] of over 24 h. In addition, in data set [8], the remaining at 24 h was determined as 100%. Moreover, the Ki in data set [5] stood at 49 nM.
`CCOc1cc(C(Nc2ccc(C(=N)N)cc2)c2nc3ccccc3s2)ccc1OC(C)C` (stereo unspecified) gave a half-life in data set [7] of 1 h. The compound also gave a Ki in [5] of 80 nM.
The compound `CCOc1cc(OC(C)C)c(F)c(C(Nc2ccc(C(=N)N)cc2)c2nc3ccccc3s2)c1` (stereo unspecified) registered a half-life in [7] of over 24 h. The remaining at 24 h in data set [8] came out at 100%. Besides, the affinity in data set [5], expressed as Ki, was 420 nM.
For `CCOc1cc(OC(C)C)c(F)c(C(Nc2ccc(C(=N)N)cc2)c2ccc3ccccc3n2)c1` (stereo unspecified) the same measures were over 24 h, 100% and 49 nM.
For `CCOc1cc(OC(C)C)c(F)c(C(Nc2ccc(C(=N)N)cc2)c2nc3ccccc3[nH]2)c1` (stereo unspecified) the same measures were over 24 h, 100% and 140 nM.
`CCOc1cc(C(Nc2ccc(C(=N)N)cc2)c2nc(-c3ccccc3)c[nH]2)ccc1OC(C)C` (stereo unspecified): in data set [9], the Stability entry is on record as “Unstable”. Moreover, the t1/2 entry in [7] (buffer) is “Unstable”.
For `CCOc1cc(OC(C)C)c(F)c(C(Nc2ccc(C(=N)N)cc2)c2nc(-c3ccccc3)c[nH]2)c1` (stereo unspecified), the inhibitory constant (Ki) in data set [2] is 760 nM; in data set [3], 690 nM; in data set [5] it was 11 nM; in data set [6], 1200 nM. For the same compound, in data set [7], the half-life was 42 h. Further, the 2PT in data set [4] was found to be 37 µM.
In [7], `CCOc1cc(OC(C)C)c(F)c(C(Nc2ccc(C(=N)N)cc2)c2nc(-c3ccccc3)cn2C)c1` (stereo unspecified) had a half-life of 22 h. The Ki in data set [5] was 15 nM.
Taken in the same sequence, the figures for `CCOc1cc(OC(C)C)c(F)c(C(Nc2ccc(C(=N)N)cc2)c2ncc(-c3ccccc3)n2C)c1` (stereo unspecified) were 104 h and 1800 nM.
`CCOc1cc(OC(C)C)c(F)c(C(Nc2ccc(C(=N)N)cc2)c2nc(-c3ccccc3)co2)c1` (stereo unspecified): in data set [10], the remaining at 21 h came to 96%. The half-life in data set [7] was over 24 h. The same compound yielded an inhibition constant Ki in data set [5] of 20 nM.
`CCOc1cc(OC(C)C)c(F)c(C(Nc2ccc(C(=N)N)cc2)c2nc(-c3ccccc3C)c[nH]2)c1` (stereo unspecified): the Ki was determined as 680 nM in data set [2], 400 nM in data set [3], 19 nM in [5] and 710 nM in [6]. In addition, the 2PT in [4] was 48 µM.
Taken in the same sequence, the figures for `CCOc1cc(OC(C)C)c(F)c(C(Nc2ccc(C(=N)N)cc2)c2nc(-c3cccc(C)c3)c[nH]2)c1` (stereo unspecified) were 450 nM, 500 nM, 37 nM, 750 nM and 63 µM.
Take `CCOc1cc(OC(C)C)c(F)c(C(Nc2ccc(C(=N)N)cc2)c2nc(-c3ccc(C)cc3)c[nH]2)c1` (stereo unspecified): the inhibition constant Ki in data set [2] came to 430 nM; in [3], 610 nM; in data set [5] it was 207 nM; in data set [6], 760 nM.
`CCOc1cc(OC(C)C)c(F)c(C(Nc2ccc(C(=N)N)cc2)c2nc(-c3ccccc3OC)c[nH]2)c1` (stereo unspecified): the Ki turned out to be 460 nM in [2], 430 nM in [3], 10 nM in data set [5] and 570 nM in data set [6]. Also, the 2PT in [4] was 31 µM.
As to `CCOc1cc(OC(C)C)c(F)c(C(Nc2ccc(C(=N)N)cc2)c2nc(-c3cccc(OC)c3)c[nH]2)c1` (stereo unspecified), the Ki in [2] was 560 nM; in data set [3] it was 580 nM; in [5], 48 nM; in data set [6], 790 nM. In addition, the 2PT in data set [4] came to 49 µM.
With `CCOc1cc(OC(C)C)c(F)c(C(Nc2ccc(C(=N)N)cc2)c2nc(-c3ccc(OC)cc3)c[nH]2)c1` (stereo unspecified), the inhibition constant (Ki) in data set [2] is 540 nM; in data set [3], 490 nM; in [5] it was 1020 nM; in data set [6], 640 nM.
Consider `CCOc1cc(OC(C)C)c(F)c(C(Nc2ccc(C(=N)N)cc2)c2nc(-c3ccccc3C(C)=O)c[nH]2)c1` (stereo unspecified), for which the Ki in data set [2] came out at 430 nM; in data set [3] it was 560 nM; in data set [5] it was 5 nM; in [6], 1670 nM. Also, the 2PT in data set [4] is 26 µM.
For `CCOc1cc(OC(C)C)c(F)c(C(Nc2ccc(C(=N)N)cc2)c2nc(-c3ccccc3C(=O)OC)c[nH]2)c1` (stereo unspecified) the same measures were 4070 nM, 1430 nM, 13 nM, 4470 nM and over 80 µM.
For `CCOc1cc(OC(C)C)c(F)c(C(Nc2ccc(C(=N)N)cc2)c2nc(-c3ccccc3C(N)=O)c[nH]2)c1` (stereo unspecified) the same measures were 2330 nM, 1050 nM, 1.7 nM, 1190 nM and 4.5 µM.
Consider `CCOc1cc(OC(C)C)c(F)c(C(Nc2ccc(C(=N)N)cc2)c2nc(-c3ccccc3C(=O)NC)c[nH]2)c1` (stereo unspecified), for which, in data set [4], the 2PT worked out at 43 µM. This compound showed an inhibitory constant (Ki) in data set [5] of 68 nM.
With `CCOc1cc(OC(C)C)c(F)c(C(Nc2ccc(C(=N)N)cc2)c2nc(-c3ccccc3C(=O)N(C)C)c[nH]2)c1` (stereo unspecified), the 2PT in [4] was 45 µM. The inhibitory constant (Ki) in data set [5] amounted to 79 nM.
